Test results taken from US20230165831A1, “METHOD AND COMPOSITION FOR RENDERING CANCER CELLS SUSCEPTIBLE TO TREATMENT BY TARGETED ONCOGENETIC DRIVERS” (IMPACT BIOLIFE SCIENCE, INC., priority 2021, published 2023).
Like-named read-outs stand apart in the source and are kept apart here.

Columns and labels:
[1] = test system: ovarian cancer line SK-OV3 cells;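 also: luminescent signal read after CellTiter-Glo addition, cells exposed to compounds for 72 h at 37 °C under 5% CO2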
Method: (§1) To measure the cell inhibition effect of compounds and synergy effect of test articles on ten (10) cell lines using standard CTG assay.
(§2) 7) Using complete cell medium, adjust the volume of the suspension to achieve a cell concentration.
(§3) A549, T47D, SK-OV-3, MKN45, SK-Hep-1, HT-29, Capan-1, 786-O and LNCaP cell line, for compounds and vehicle groups, the seeding density of cell lines is 3000 cells/80 µL per well. For blank groups, add 100 µL medium. For PBS groups, add 100 µL PBS.
(§4) 8) Incubate the U87MG, A549, T47D, SK-OV-3, MKN45, SK-Hep-1, HT-29, Capan-1, 786-O and LNCaP cells overnight at 37° C./5% CO2.
(§5) Solid compound of cis-platinum was solubilized in PBS to a stock solution of 3.333 mM.
(§6) Final volume is 100 µL per well at this point.
(§7) 5) Incubate the plates at 37° C./5% CO2 for 72 hours.
(§8) 1) Incubate the plates at room temperature and away from light for 30 minutes.
(§9) 3) Add 100 µL /well of CellTiter-Glo® Reagent in each well. Avoid light.
(§10) 4) Mix contents for 2 minutes on an orbital shaker.
(§11) 5) Incubate plate at room temperature for 10 minutes to stabilize the luminescent signal.
6) Read plates in Envision.

[2] = test system: Liver cancer line SK-HEP-1 cells;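 also: luminescent signal read after 72 h compound exposure at 37 °C under 5% CO2, with medium-only wells serving as blank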
Method: as §1, §2
(§12) b. A549, T47D, SK-OV-3, MKN45, SK-Hep-1, HT-29, Capan-1, 786-O and LNCaP cell line, for compounds and vehicle groups, the seeding density of cell lines is 3000 cells/80 µL per well. For blank groups, add 100 µL medium. For PBS groups, add 100 µL PBS.
as §4, §5, §6, §7, §8, §9, §10, §11
6) Read plates in Envision.

[3] = test system: breast cancer line T47D cells;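 also: luminescence read-out after 72 h at 37 °C under 5% CO2, with medium-only wells as blanks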
Method: as §1, §2, §12, §4, §5, §6, §7, §8, §9, §10, §11
6) Read plates in Envision.

[4] = test system: Liver cancer line SK-HEP-1 cells; experiment: CTG (CellTiter-Glo) cell viability assay, 6×6 combo matrix, 72 h, SK-Hep-1; settings: Homo sapiens;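 also: luminescent signal read after 72 h compound exposure at 37 °C under 5% CO2, with medium-only wells serving as blank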
Method: as §1, §2, §12, §4, §5, §6, §7, §8, §9, §10, §11
6) Read plates in Envision.

[5] = test system: breast cancer line T47D cells; experiment: CTG (CellTiter-Glo) cell viability assay, 6×6 combo matrix, 72 h, T47D; settings: Homo sapiens;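 also: luminescence read-out after 72 h at 37 °C under 5% CO2, with medium-only wells as blanks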
Method: as §1, §2, §12, §4, §5, §6, §7, §8, §9, §10, §11
6) Read plates in Envision.

[6] = test system: gastric cancer line MKN45 cells; experiment: CTG (CellTiter-Glo) cell viability assay, 6×6 combo matrix, 72 h, MKN45;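 also: MKN45 cell viability read as CellTiter-Glo luminescence after 72 h culture at 37 °C under 5% CO2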
[7] = test system: lung adenocarcinoma line A549 cells; experiment: CTG (CellTiter-Glo) cell viability assay, 6×6 combo matrix, 72 h, A549; settings: A549;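 also: luminescent ATP readout with CellTiter-Glo after compound exposure, used to assess growth inhibition and combination synergy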
[8] = test system: colorectal cancer line HT29 cells; experiment: CTG (CellTiter-Glo) cell viability assay, 6×6 combo matrix, 72 h, HT29; settings: for Relatively Cell inhibition of vehicle control(%): HT29;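 as to all read-outs here: cells exposed to compounds for 72 hours at 37 °C under 5% CO2, then viability read as luminescence after adding CellTiter-Glo Reagent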
[9] = test system: glioblastoma line U87MG cells; experiment: CTG (CellTiter-Glo) cell viability assay, 6×6 combo matrix, 72 h, U87MG; settings: Homo sapiens, U-87 MG;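 also: U87MG cells seeded at 2000 per well, exposed 72 h, viability read by CellTiter-Glo luminescence, inhibition expressed relative to vehicle-treated wells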
Method: as §1, §2
U87MG cell lines, for compounds and vehicle groups, the seeding density of cell lines is 2000 cells/80 µL per well. For blank groups, add 100 µL medium. For PBS groups, add 100 µL PBS.
as §4, §5, §6, §7, §8, §9, §10, §11
6) Read plates in Envision.

[10] = test system: prostate adenocarcinoma line LNCap cells;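 also: luminescence signal read after adding CellTiter-Glo reagent, with cells exposed to compounds for 72 h at 37 °C under 5% CO2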
[11] = test system: kidney cancer line 786-O cells; experiment: CTG (CellTiter-Glo) cell viability assay, 6×6 combo matrix, 72 h, 786-O; settings: for Relatively Cell inhibition of vehicle control(%): 786-O;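 as to all read-outs here: luminescence read-out after adding CellTiter-Glo reagent, with cells incubated at 37 °C under 5% CO2 during compound exposure, part of a ten cell line synergy study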
Method: as §1, §2, §12, §4, §5, §6, §7, §8, §9, §10, §11
6) Read plates in Envision.

[12] = test system: pancreatic cancer line Capan-1 cells; experiment: CTG (CellTiter-Glo) cell viability assay, 6×6 combo matrix, 72 h, Capan-1; assay type: cell-based; settings: for Relatively Cell inhibition of vehicle control(%): Capan-1
How it was run: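 Capan-1 cells were seeded at 3000 cells per well and incubated overnight at 37 °C/5% CO2. They were then treated with compounds in a 6×6 combination matrix for 72 h at 37 °C/5% CO2. Viability was read by CellTiter-Glo luminescence to assess inhibition and synergy.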

[13] = test system: ovarian cancer line SK-OV3 cells; experiment: CTG (CellTiter-Glo) cell viability assay, 6×6 combo matrix, 72 h, SK-OV-3; settings: SK-OV-3;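 also: luminescent signal read after CellTiter-Glo addition, cells exposed to compounds for 72 h at 37 °C under 5% CO2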
Method: as §1, §2, §3, §4, §5, §6, §7, §8, §9, §10, §11
6) Read plates in Envision.

[14] = Tax 8 nM only (myricetin matrix)
[15] = Tax 40 nM only (myricetin matrix)
[16] = Tax 200 nM only (myricetin matrix)
[17] = Tax 1000 nM only (myricetin matrix)
[18] = Homo sapiens, HT-29, read-out: Relatively Cell inhibition of vehicle control(%)
[19] = Homo sapiens, 786-0, read-out: Relatively Cell inhibition of vehicle control

CC(=O)O[C@H]1C(=O)[C@@]2(C)[C@H]([C@H](OC(=O)c3ccccc3)[C@]3(O)C[C@H](OC(=O)[C@H](O)[C@@H](NC(=O)c4ccccc4)c4ccccc4)C(C)=C1C3(C)C)[C@]1(OC(C)=O)CO[C@@H]1C[C@@H]2O [taxol, paclitaxel] showed an inhibition [1] of 17.4%, an inhibition [2] of 0.78% and an inhibition [3] of 17%. For the same compound, the inhibition at 0.008 µM ([4]; SK-HEP1, read-out: Relatively Cell inhibition of vehicle control, taxol 8 nM only (LB-1 table)) was 30.6%, the inhibition at 0.008 µM ([4]; SK-HEP1, read-out: Relatively Cell inhibition of vehicle control, taxol 8 nM only (myricetin table)) was 36% and the inhibition at 0.04 µM ([4]; SK-HEP1, read-out: Relatively Cell inhibition of vehicle control, taxol 40 nM only (LB-1 table)) was 59.5%. For the same compound, the inhibition at 0.04 µM ([4]; SK-HEP1, read-out: Relatively Cell inhibition of vehicle control, taxol 40 nM only (myricetin table)) was 62.4%, the inhibition at 0.2 µM ([4]; SK-HEP1, read-out: Relatively Cell inhibition of vehicle control, taxol 200 nM only (LB-1 table)) was 68.8% and the inhibition at 0.2 µM ([4]; SK-HEP1, read-out: Relatively Cell inhibition of vehicle control, taxol 200 nM only (myricetin table)) was 65.2%. It also gave an inhibition at 1 µM ([4]; SK-HEP1, read-out: Relatively Cell inhibition of vehicle control, taxol 1000 nM only (LB-1 table)) of 78%, an inhibition at 1 µM ([4]; SK-HEP1, read-out: Relatively Cell inhibition of vehicle control, taxol 1000 nM only (myricetin table)) of 78.8% and an inhibition at 0.008 µM ([5]; read-out: Relatively Cell inhibition of vehicle control(%), T47D, 8 nM taxol only (LB-1 0)) of 33.2%. For the same compound, the inhibition at 0.008 µM ([5]; read-out: Relatively Cell inhibition of vehicle control(%), T47D, 8 nM taxol only (myricetin 0)) was 40.8%, the inhibition at 0.04 µM ([5]; read-out: Relatively Cell inhibition of vehicle control(%), T47D, 40 nM taxol only (LB-1 0)) was 42.2% and the inhibition at 0.04 µM ([5]; read-out: Relatively Cell inhibition of vehicle control(%), T47D, 40 nM taxol only (myricetin 0)) was 48.6%. For the same compound, the inhibition at 0.2 µM ([5]; read-out: Relatively Cell inhibition of vehicle control(%), T47D, 200 nM taxol only (LB-1 0)) was 42%, the inhibition at 0.2 µM ([5]; read-out: Relatively Cell inhibition of vehicle control(%), T47D, 200 nM taxol only (myricetin 0)) was 48.5% and the inhibition at 1 µM ([5]; read-out: Relatively Cell inhibition of vehicle control(%), T47D, 1000 nM taxol only (LB-1 0)) was 38%. For the same compound, the inhibition at 1 µM ([5]; read-out: Relatively Cell inhibition of vehicle control(%), T47D, 1000 nM taxol only (myricetin 0)) was 45.8%, the “Relatively Cell inhibition of vehicle control(%)” value ([6]; Tax 8 nM only (LB-1 0)) was 52.04% and the “Relatively Cell inhibition of vehicle control(%)” value ([6]; Tax 8 nM only (Myr 0)) was 50.47%. The “Relatively Cell inhibition of vehicle control(%)” value ([6]; Tax 40 nM only (LB-1 0)) was 48.11%, the “Relatively Cell inhibition of vehicle control(%)” value ([6]; Tax 40 nM only (Myr 0)) was 56.30% and the “Relatively Cell inhibition of vehicle control(%)” value ([6]; Tax 200 nM only (LB-1 0)) was 64.94%. For the same compound, the “Relatively Cell inhibition of vehicle control(%)” value ([6]; Tax 200 nM only (Myr 0)) was 68.16%, the “Relatively Cell inhibition of vehicle control(%)” value ([6]; Tax 1000 nM only (LB-1 0)) was 70.65% and the “Relatively Cell inhibition of vehicle control(%)” value ([6]; Tax 1000 nM only (Myr 0)) was 69.93%. For the same compound, the “Relatively Cell inhibition of vehicle control(%)” value ([7]; Tax 8 nM only (LB-1 matrix)) was 55.11%, the “Relatively Cell inhibition of vehicle control(%)” value [7, 14] was 53.76% and the “Relatively Cell inhibition of vehicle control(%)” value ([7]; Tax 40 nM only (LB-1 matrix)) was 68.79%. For the same compound, the “Relatively Cell inhibition of vehicle control(%)” value [7, 15] was 68.03%, the “Relatively Cell inhibition of vehicle control(%)” value ([7]; Tax 200 nM only (LB-1 matrix)) was 77.44% and the “Relatively Cell inhibition of vehicle control(%)” value [7, 16] was 75.24%. For the same compound, the “Relatively Cell inhibition of vehicle control(%)” value ([7]; Tax 1000 nM only (LB-1 matrix)) was 76.64%, the “Relatively Cell inhibition of vehicle control(%)” value [7, 17] was 77.27% and the inhibition at 0.008 µM [8, 18] was 67.9%. For the same compound, the inhibition at 0.04 µM [8, 18] was 83.4%, the inhibition at 0.2 µM [8, 18] was 83.1% and the inhibition at 1 µM [8, 18] was 82%. For the same compound, the “Relatively Cell inhibition of vehicle control(%)” value ([8]; Tax 8 nM only (Myr 0)) was 73.73%, the “Relatively Cell inhibition of vehicle control(%)” value ([8]; Tax 40 nM only (Myr 0)) was 80.46% and the “Relatively Cell inhibition of vehicle control(%)” value ([8]; Tax 200 nM only (Myr 0)) was 81.35%. The “Relatively Cell inhibition of vehicle control(%)” value ([8]; Tax 1000 nM only (Myr 0)) was 79.03%, the inhibition at 0.008 µM ([9]; 72 h, read-out: Relatively Cell inhibition of vehicle control(%), U87MG, 8 nM taxol only (LB-1 0), 72 h) was 42.7% and the inhibition at 0.04 µM ([9]; 72 h, read-out: Relatively Cell inhibition of vehicle control(%), U87MG, 40 nM taxol only (LB-1 0), 72 h) was 53.9%. The inhibition at 0.2 µM ([9]; 72 h, read-out: Relatively Cell inhibition of vehicle control(%), U87MG, 200 nM taxol only (LB-1 0), 72 h) was 67.8%, the inhibition at 1 µM ([9]; 72 h, read-out: Relatively Cell inhibition of vehicle control(%), U87MG, 1000 nM taxol only (LB-1 0), 72 h) was 66.2% and the inhibition at 0.008 µM ([9]; read-out: Relatively Cell inhibition of vehicle control(%), taxol 8 nM only) was 46.5%. For the same compound, the inhibition at 0.04 µM ([9]; read-out: Relatively Cell inhibition of vehicle control(%), taxol 40 nM only) was 60.6%, the inhibition at 0.2 µM ([9]; read-out: Relatively Cell inhibition of vehicle control(%), taxol 200 nM only) was 72.2% and the inhibition at 1 µM ([9]; read-out: Relatively Cell inhibition of vehicle control(%), taxol 1000 nM only) was 69.8%. It also gave an inhibition [10] of 9.88%, an inhibition at 0.008 µM [11, 19] of 12.2% and an inhibition at 0.04 µM [11, 19] of 42.6%. The inhibition at 0.2 µM [11, 19] was 70%, the inhibition at 1 µM [11, 19] was 74.1% and the “Relatively Cell inhibition of vehicle control(%)” value ([11]; Tax 8 nM only (LB-1 0)) was 12.57%. The “Relatively Cell inhibition of vehicle control(%)” value ([11]; Tax 40 nM only (LB-1 0)) was 43.18%, the “Relatively Cell inhibition of vehicle control(%)” value ([11]; Tax 200 nM only (LB-1 0)) was 69.53% and the “Relatively Cell inhibition of vehicle control(%)” value ([11]; Tax 1000 nM only (LB-1 0)) was 73.05%. The inhibition at […] ([12]; Homo sapiens, CAPAN-1, taxol 1.6 nM only, read-out: Relatively Cell inhibition of vehicle control) was 17.2%, the inhibition at 0.008 µM ([12]; Homo sapiens, CAPAN-1, taxol 8 nM only, read-out: Relatively Cell inhibition of vehicle control) was 54.3% and the inhibition at 0.04 µM ([12]; Homo sapiens, CAPAN-1, taxol 40 nM only, read-out: Relatively Cell inhibition of vehicle control) was 65.8%. For the same compound, the inhibition at 0.2 µM ([12]; Homo sapiens, CAPAN-1, taxol 200 nM only, read-out: Relatively Cell inhibition of vehicle control) was 65.4%, the inhibition at 1 µM ([12]; Homo sapiens, CAPAN-1, taxol 1000 nM only, read-out: Relatively Cell inhibition of vehicle control) was 67.2% and the “Relatively Cell inhibition of vehicle control(%)” value ([12]; Tax 8 nM only) was 51.97%. For the same compound, the “Relatively Cell inhibition of vehicle control(%)” value ([12]; Tax 40 nM only) was 62.89%, the “Relatively Cell inhibition of vehicle control(%)” value ([12]; Tax 200 nM only) was 63.24% and the “Relatively Cell inhibition of vehicle control(%)” value ([12]; Tax 1000 nM only) was 64.00%. The “Relatively Cell inhibition of vehicle control(%)” value ([13]; Tax 8 nM only (LB-1 matrix)) was 41.59%, the “Relatively Cell inhibition of vehicle control(%)” value [13, 14] was 39.88% and the “Relatively Cell inhibition of vehicle control(%)” value ([13]; Tax 40 nM only (LB-1 matrix)) was 54.31%. The “Relatively Cell inhibition of vehicle control(%)” value [13, 15] was 52.55%, the “Relatively Cell inhibition of vehicle control(%)” value ([13]; Tax 200 nM only (LB-1 matrix)) was 71.38% and the “Relatively Cell inhibition of vehicle control(%)” value [13, 16] was 68.68%. For the same compound, the “Relatively Cell inhibition of vehicle control(%)” value ([13]; Tax 1000 nM only (LB-1 matrix)) was 76.39% and the “Relatively Cell inhibition of vehicle control(%)” value [13, 17] was 73.38%.
